Activity calls are given as the source filed them. The rule behind the calls is not given here.
Test system: Plasmodium yoelii nigeriensis
Assay: Antimalarial activity against chloroquine-, mefloquine-, halofantrine-resistant Plasmodium yoelii nigeriensis blood stream schizonts infected in Swiss mouse assessed as suppression of parasitemia at 48 mg/kg, im administered once daily for 4 days relative to control
Format: functional
Conditions: route intramuscular

| Compound | Activity [%] |
| --- | --- |
| C[C@H]1[C@@H](OCCOC(=O)CCC(=O)O)O[C@@H]2O[C@@]3(C)CC[C@H]4[C@H](C)CC[C@@H]1[C@@]24OO3 | 100 |
| C[C@H]1[C@@H](OCCCCCCO)O[C@@H]2O[C@@]3(C)CC[C@H]4[C@H](C)CC[C@@H]1[C@@]24OO3 | 100 |
| C[C@H]1[C@@H](OCCOCCOCCOC(=O)CCC(=O)O)O[C@@H]2O[C@@]3(C)CC[C@H]4[C@H](C)CC[C@@H]1[C@@]24OO3 | 92 |
| C[C@H]1[C@@H](OCCOCCO)O[C@@H]2O[C@@]3(C)CC[C@H]4[C@H](C)CC[C@@H]1[C@@]24OO3 | 100 |
| C[C@H]1[C@@H](OCCCCCCCCCOC(=O)CCC(=O)O)O[C@@H]2O[C@@]3(C)CC[C@H]4[C@H](C)CC[C@@H]1[C@@]24OO3 (mixture of isomers) | 100 |
| C[C@H]1[C@@H](OCCCCOC(=O)CCC(=O)O)O[C@@H]2O[C@@]3(C)CC[C@H]4[C@H](C)CC[C@@H]1[C@@]24OO3 | 100 |

Test system: Plasmodium yoelii nigeriensis
Assay: Antimalarial activity against chloroquine-, mefloquine-, halofantrine-resistant Plasmodium yoelii nigeriensis blood stream schizonts infected in Swiss mouse assessed as disease cured mouse at 48 mg/kg, im administered once daily for 4 days measured on day 28
Format: functional, organism-based
Parameters: dose 48 mg/kg
Conditions: not given

| Compound | Activity |
| --- | --- |
| C[C@H]1[C@@H](OCCOC(=O)CCC(=O)O)O[C@@H]2O[C@@]3(C)CC[C@H]4[C@H](C)CC[C@@H]1[C@@]24OO3 | inactive |
| C[C@H]1[C@@H](OCCCCCCO)O[C@@H]2O[C@@]3(C)CC[C@H]4[C@H](C)CC[C@@H]1[C@@]24OO3 | Active |
| C[C@H]1[C@@H](OCCOCCO)O[C@@H]2O[C@@]3(C)CC[C@H]4[C@H](C)CC[C@@H]1[C@@]24OO3 | Active |
| C[C@H]1[C@@H](OCCCCCCCCCOC(=O)CCC(=O)O)O[C@@H]2O[C@@]3(C)CC[C@H]4[C@H](C)CC[C@@H]1[C@@]24OO3 (mixture of isomers) | Active |

Test system: Plasmodium yoelii nigeriensis
Assay: Antimalarial activity against chloroquine-, mefloquine-, halofantrine-resistant Plasmodium yoelii nigeriensis blood stream schizonts infected in Swiss mouse assessed as disease cured mouse at 3 mg/kg, im administered once daily for 4 days measured on day 28
Format: functional, organism-based
Parameters: dose 3 mg/kg
Conditions: not given

| Compound | Activity |
| --- | --- |
| C[C@H]1[C@@H](OCCCCCCO)O[C@@H]2O[C@@]3(C)CC[C@H]4[C@H](C)CC[C@@H]1[C@@]24OO3 | inactive |

Test system: Plasmodium yoelii nigeriensis
Assay: Antimalarial activity against chloroquine-, mefloquine-, halofantrine-resistant Plasmodium yoelii nigeriensis blood stream schizonts infected in Swiss mouse assessed as suppression of parasitemia at 6 mg/kg, im administered once daily for 4 days relative to control
Format: functional
Conditions: route intramuscular

| Compound | Activity [%] |
| --- | --- |
| C[C@H]1[C@@H](OCCCCCCO)O[C@@H]2O[C@@]3(C)CC[C@H]4[C@H](C)CC[C@@H]1[C@@]24OO3 | 100 |
| C[C@H]1[C@@H](OCCOCCO)O[C@@H]2O[C@@]3(C)CC[C@H]4[C@H](C)CC[C@@H]1[C@@]24OO3 | 100 |

Test system: Plasmodium yoelii nigeriensis
Assay: Antimalarial activity against chloroquine-, mefloquine-, halofantrine-resistant Plasmodium yoelii nigeriensis blood stream schizonts infected in Swiss mouse assessed as disease cured mouse at 6 mg/kg, im administered once daily for 4 days measured on day 28
Format: functional, organism-based
Parameters: dose 6 mg/kg
Conditions: not given

| Compound | Activity |
| --- | --- |
| C[C@H]1[C@@H](OCCOCCO)O[C@@H]2O[C@@]3(C)CC[C@H]4[C@H](C)CC[C@@H]1[C@@]24OO3 | inactive |

Test system: Plasmodium yoelii nigeriensis
Assay: Antimalarial activity against chloroquine-, mefloquine-, halofantrine-resistant Plasmodium yoelii nigeriensis blood stream schizonts infected in Swiss mouse assessed as suppression of parasitemia at 24 mg/kg, im administered once daily for 4 days relative to control
Format: functional
Conditions: route intramuscular

| Compound | Activity [%] |
| --- | --- |
| C[C@H]1[C@@H](OCCCCCCO)O[C@@H]2O[C@@]3(C)CC[C@H]4[C@H](C)CC[C@@H]1[C@@]24OO3 | 100 |
| C[C@H]1[C@@H](OCCOCCO)O[C@@H]2O[C@@]3(C)CC[C@H]4[C@H](C)CC[C@@H]1[C@@]24OO3 | 100 |
| C[C@H]1[C@@H](OCCCCCCCCCOC(=O)CCC(=O)O)O[C@@H]2O[C@@]3(C)CC[C@H]4[C@H](C)CC[C@@H]1[C@@]24OO3 (mixture of isomers) | 93.09 |

Test system: not listed separately
Assay: Lipophilicity, log P of the compound
Format: physicochemical
Conditions: octanol/water

| Compound | logP |
| --- | --- |
| C[C@H]1[C@@H](OCCOC(=O)CCC(=O)O)O[C@@H]2O[C@@]3(C)CC[C@H]4[C@H](C)CC[C@@H]1[C@@]24OO3 | 2.89 |
| C[C@H]1[C@@H](OCCCCCCO)O[C@@H]2O[C@@]3(C)CC[C@H]4[C@H](C)CC[C@@H]1[C@@]24OO3 | 4.38 |
| C[C@H]1[C@@H](OCCOCCOCCOC(=O)CCC(=O)O)O[C@@H]2O[C@@]3(C)CC[C@H]4[C@H](C)CC[C@@H]1[C@@]24OO3 | 2.54 |
| C[C@H]1[C@@H](OCCOCCO)O[C@@H]2O[C@@]3(C)CC[C@H]4[C@H](C)CC[C@@H]1[C@@]24OO3 | 2.83 |
| C[C@H]1[C@@H](OCCCCCCCCCOC(=O)CCC(=O)O)O[C@@H]2O[C@@]3(C)CC[C@H]4[C@H](C)CC[C@@H]1[C@@]24OO3 (mixture of isomers) | 5.53 |
| C[C@H]1[C@@H](OCCCCOC(=O)CCC(=O)O)O[C@@H]2O[C@@]3(C)CC[C@H]4[C@H](C)CC[C@@H]1[C@@]24OO3 | 3.45 |

Test system: Plasmodium yoelii nigeriensis
Assay: Antimalarial activity against chloroquine-, mefloquine-, halofantrine-resistant Plasmodium yoelii nigeriensis blood stream schizonts infected in Swiss mouse assessed as disease cured mouse at 12 mg/kg, im administered once daily for 4 days measured on day 28
Format: functional, organism-based
Parameters: dose 12 mg/kg
Conditions: not given

| Compound | Activity |
| --- | --- |
| C[C@H]1[C@@H](OCCCCCCO)O[C@@H]2O[C@@]3(C)CC[C@H]4[C@H](C)CC[C@@H]1[C@@]24OO3 | Active |
| C[C@H]1[C@@H](OCCCCCCCCCOC(=O)CCC(=O)O)O[C@@H]2O[C@@]3(C)CC[C@H]4[C@H](C)CC[C@@H]1[C@@]24OO3 (mixture of isomers) | inactive |

Test system: Plasmodium yoelii nigeriensis
Assay: Antimalarial activity against chloroquine-, mefloquine-, halofantrine-resistant Plasmodium yoelii nigeriensis blood stream schizonts infected in Swiss mouse assessed as suppression of parasitemia at 12 mg/kg, im administered once daily for 4 days relative to control
Format: functional
Conditions: route intramuscular

| Compound | Activity [%] |
| --- | --- |
| C[C@H]1[C@@H](OCCCCCCO)O[C@@H]2O[C@@]3(C)CC[C@H]4[C@H](C)CC[C@@H]1[C@@]24OO3 | 100 |
| C[C@H]1[C@@H](OCCOCCO)O[C@@H]2O[C@@]3(C)CC[C@H]4[C@H](C)CC[C@@H]1[C@@]24OO3 | 100 |
| C[C@H]1[C@@H](OCCCCCCCCCOC(=O)CCC(=O)O)O[C@@H]2O[C@@]3(C)CC[C@H]4[C@H](C)CC[C@@H]1[C@@]24OO3 (mixture of isomers) | 67.27 |

Test system: Plasmodium yoelii nigeriensis
Assay: Antimalarial activity against chloroquine-, mefloquine-, halofantrine-resistant Plasmodium yoelii nigeriensis blood stream schizonts infected in Swiss mouse assessed as disease cured mouse at 24 mg/kg, im administered once daily for 4 days measured on day 28
Format: functional, organism-based
Parameters: dose 24 mg/kg
Conditions: not given

| Compound | Activity |
| --- | --- |
| C[C@H]1[C@@H](OCCCCCCO)O[C@@H]2O[C@@]3(C)CC[C@H]4[C@H](C)CC[C@@H]1[C@@]24OO3 | Active |
| C[C@H]1[C@@H](OCCOCCO)O[C@@H]2O[C@@]3(C)CC[C@H]4[C@H](C)CC[C@@H]1[C@@]24OO3 | Active |
| C[C@H]1[C@@H](OCCCCCCCCCOC(=O)CCC(=O)O)O[C@@H]2O[C@@]3(C)CC[C@H]4[C@H](C)CC[C@@H]1[C@@]24OO3 (mixture of isomers) | inactive |

Test system: Plasmodium yoelii nigeriensis
Assay: Antimalarial activity against chloroquine-, mefloquine-, halofantrine-resistant Plasmodium yoelii nigeriensis blood stream schizonts infected in Swiss mouse assessed as suppression of parasitemia at 3 mg/kg, im administered once daily for 4 days relative to control
Format: functional
Conditions: route intramuscular

| Compound | Activity [%] |
| --- | --- |
| C[C@H]1[C@@H](OCCCCCCO)O[C@@H]2O[C@@]3(C)CC[C@H]4[C@H](C)CC[C@@H]1[C@@]24OO3 | 100 |
